Assay results published in US20010028879A1, “Inhibition of graft versus host disease” (priority 1998, published 2001).
Like-named read-outs stand apart in the source and are kept apart here.

Tested on: Peripheral human blood mononuclear cells PBMCs
Conditions: for Cytokine Profile: after 7 days
Protocol: Peripheral human blood mononuclear cells PBMCs, which is a collection of white blood cells comprising about 40% T-cells, were stressed by contact with aqueous solutions of hydrogen peroxide, of various concentrations, for 20 minutes. Their immediate survival was measured, along with their immediate phytohaemagglutinin (PHA) response. Then their survival after 24 hours was measured, followed by their PHA response (tritiated thymidine uptake following mitogenic stimulation with PHA) and cytokine profile after 7 days.

SMILES: OO [Example H2O2, hydrogen peroxide]
- 24 hr survival % (100 μmole/L H2O2, 20 minutes): 100%
- Immediate PHA response (100 μmole/L H2O2, 20 minutes): 2000
- Immediate survival % (100 μmole/L H2O2, 20 minutes): 80-90%
- Cytokine Profile (100 μmole/L H2O2, 20 minutes): IFN↓
- 24 hr survival % (300 μmole/L H2O2, 20 minutes): 50%
- Immediate PHA response (300 μmole/L H2O2, 20 minutes): 2000
- Immediate survival % (300 μmole/L H2O2, 20 minutes): 80-90%
- Cytokine Profile (300 μmole/L H2O2, 20 minutes): IFN↓
- 24 hr survival % (1 mmole/L H2O2, 20 minutes): 40%
- Immediate PHA response (1 mmole/L H2O2, 20 minutes): 400
- Immediate survival % (1 mmole/L H2O2, 20 minutes): 80-90%
- Cytokine Profile (1 mmole/L H2O2, 20 minutes): IFN↓
- 24 hr survival % (3 mmole/L H2O2, 20 minutes): 40%
- Immediate PHA response (3 mmole/L H2O2, 20 minutes): 400
- Immediate survival % (3 mmole/L H2O2, 20 minutes): 80-90%
- Cytokine Profile (3 mmole/L H2O2, 20 minutes): IFN↓
